We go through 1 molecule from publication PMC10384675, “Novel Thiazolidine-2,4-dione-trimethoxybenzene-thiazole Hybrids as Human Topoisomerases Inhibitors” (Pharmaceuticals, 2023).

Experiment [1] has as its system A2058 melanoma cells. Put plainly: MTT cell viability assay, A2058. The class given is cell-based. As to conditions: Homo sapiens, 72 h. The method, then: (§1) All of the synthesized compounds (7a–f) were studied to test their anticancer activity toward the estrogen receptor-positive (ER+) MCF-7 and the triple-negative MDA-MB-231 breast cancer cells (ER-, PR- and HER-2/Neu not overexpressed) and A2058 melanoma cells. Cells were incubated for 72 h with different concentrations of the compounds, and then the viability was checked by the MTT assay. […] Moreover, we checked the cytotoxicity of all of the synthesized compounds against the human MCF-10A non-malignant breast epithelial cells and mouse BALB/3T3 embryonic fibroblasts, in order to evaluate their selectivity on cancer cells.
(§2) The used cell lines (breast cancer cell lines MCF-7 and MDA-MB-231, melanoma cell line A2058 and human mammary epithelial cell line MCF-10A) were obtained from American Type Culture Collection (ATCC, Manassas, VA, USA) and cultured as already reported. The mouse BALB/3T3 embryonic fibroblasts were also purchased from American Type Culture Collection (ATCC, Manassas, VA, USA) and cultured in DMEM high glucose supplemented with 10% bovine calf serum (BCS) and 100 U mL^−1 penicillin/streptomycin.
(§3) MTT assay (Sigma Aldrich (St. Louis, MO, USA)) was performed for evaluating the in vitro anticancer activities of the compounds, as previously indicated. Different concentrations (0.1, 1, 10, 25, 50, and 100 μM) of the compounds were employed, with a 72 h endpoint. IC50 values were obtained from the percent (%) of control using GraphPad Prism 9 (GraphPad Software, La Jolla, CA, USA).
In general terms: Tetrazolium dyes change colour on reduction, which living cells bring about.

The test system of experiment [2] is mouse BALB/3T3 embryonic fibroblasts. Put plainly: MTT cytotoxicity assay, BALB/3T3. The class given is cell-based. As to conditions: 72 h, normal cells. The method, then:
as §1, §2, §3

Experiment [3] has as its system MCF-7 cells. Put plainly: TUNEL assay. The class given is cell-based, human. As to conditions: at IC50 value, 24 h. From the text:
Numerous data in the literature indicate that topoisomerase inhibitors are among the most efficient inducers of apoptosis. […] As reference molecule, we adopted ellipticine for this assay, also. […] In contrast, no fluorescence was visible in the DMSO-treated cells used as negative control (Figure 5, CTRL, panel B). These outcomes indicated the ability of the studied compound to induce DNA damage, as ellipticine did, triggering cancer cells death.
Cell apoptosis was detected by means of the TUNEL assay, following the manufacturer’s protocols (CF™488A TUNEL Assay Apoptosis Detection Kit, Biotium, Hayward, CA, USA), with few modifications, as already reported. DAPI staining (0.2 μg/mL, Sigma Aldrich, Milan, Italy) was used for cell nuclei. A fluorescence microscope (Leica DM 6000) was used for the observations at 20× magnification. LAS-X software allowed the acquisition and processing of all of the images, which were representative of three separate experiments.
Figure 5 TUNEL assay. MCF-7 breast cancer cells were exposed to compounds 7e and ellipticine (E) at their IC50 values, or to the vehicle (DMSO) for 24 h. Then, they were further processed, as reported in Section 4, and imaged under a fluorescence microscope (20× magnification). Panels (A), DAPI λex,em= 350 nm/460 nm; panels (B), CF^TM488A, λex,em = 490 nm/515 nm; panels (C) show the merge channel.

The subject of experiment [4] is caspase-8. Description: Caspase-Glo assay, caspase-8. The class given is cell-based, human. The settings on record: MCF-7 cells, at IC50 value, 24 h, vs vehicle. The method, then: (§4) Once established that mitochondria were damaged and cyt c released into the cytoplasm, we evaluated the ability of compound 7e treatment (used at its IC50 value) in modulating caspase activity.
(§5) The caspase-Glo Assay (Caspase-Glo® 3/7, 8 and 9 Assay Systems, Promega Corporation, Madison, WI) was used to detect caspase-3/7, -8 and -9 activities, as reported in [82]. Briefly, cells were grown in white-walled 96-well plates, treated with the compound, and 100 µL of each […] was added.
(§6) Figure 7 Caspase activity in MCF-7 cells. […] Columns mean, bars SD; * p < 0.001; n.s., not significant (treated vs. CTRL).

The subject of experiment [5] is caspase-9. Put plainly: Caspase-Glo assay, caspase-9. The experiment is classed as cell-based, human. The settings on record: MCF-7 cells, at IC50 value, 24 h, vs vehicle. The method, then:
as §4, §5, §6

Consider `COc1cc(/C=C2\SC(=O)N(CC(=O)Nc3nc(-c4ccc(Br)cc4)cs3)C2=O)cc(OC)c1OC` [compound 7e, (Z)-2-(5-(3,4,5-Trimethoxybenzylidene)thiazolidin-2,4-dion-3-yl)-N-(4-(4-bromophenyl)thiazol-2-yl)acetamide], for which the IC50 (usually the point on the concentration scale where inhibition reaches its midpoint) stood at 8.4 ± 0.9 µM in experiment [1] and 35 ± 0.6 µM in experiment [2]. The “apoptosis (TUNEL, green nuclear fluorescence)” value in experiment [3] is “had undergone the apoptotic process”. Further, the caspase-8 activity entry in experiment [4] is on record as “no change”. Further, in experiment [5], the caspase-9 activity entry is on record as “noticeable increase”.
